# Patent US8119681B2, “2-[1-phenyl-5-hydroxy or methoxy-4alpha-methyl-hexahydrocyclopenta [ƒ]indazole-5-YL]ethyl phenyl derivatives as glucocorticoid receptor ligands” (Merck Sharp & Dohme Corp., priority 2006, dated 2012)
# Molecular target: T1, human GR (Homo sapiens, UniProt P04150)
# T1 sequence (P04150 1-777): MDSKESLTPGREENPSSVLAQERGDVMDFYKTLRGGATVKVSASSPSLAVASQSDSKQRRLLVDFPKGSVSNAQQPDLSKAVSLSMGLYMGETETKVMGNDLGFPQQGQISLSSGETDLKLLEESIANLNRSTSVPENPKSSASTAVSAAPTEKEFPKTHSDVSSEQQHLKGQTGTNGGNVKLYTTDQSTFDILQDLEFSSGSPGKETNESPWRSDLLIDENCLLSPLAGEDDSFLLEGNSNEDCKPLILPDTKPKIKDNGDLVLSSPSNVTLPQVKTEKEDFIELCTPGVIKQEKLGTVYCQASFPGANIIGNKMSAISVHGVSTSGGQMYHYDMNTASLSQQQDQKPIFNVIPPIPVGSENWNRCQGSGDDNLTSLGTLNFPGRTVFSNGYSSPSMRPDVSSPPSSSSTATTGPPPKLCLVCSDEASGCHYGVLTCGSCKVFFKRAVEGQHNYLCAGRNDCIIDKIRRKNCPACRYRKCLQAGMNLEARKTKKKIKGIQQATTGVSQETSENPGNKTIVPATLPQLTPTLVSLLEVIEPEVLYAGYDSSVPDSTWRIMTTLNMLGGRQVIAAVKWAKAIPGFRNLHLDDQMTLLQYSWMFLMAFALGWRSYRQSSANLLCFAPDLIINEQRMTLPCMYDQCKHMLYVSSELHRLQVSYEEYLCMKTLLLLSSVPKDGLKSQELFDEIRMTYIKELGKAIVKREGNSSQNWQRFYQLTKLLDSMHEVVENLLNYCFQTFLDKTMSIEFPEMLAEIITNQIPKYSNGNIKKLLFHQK
# Assay: Transrepression Assay (GITAR), TNFα-β-lactamase reporter gene in U937 cells
# Assay type: cell-based
# Set-up: U937 cells contain an endogenous glucocorticoid receptor (GR); endogenous in cells; host or cells: U937 cells stably transfected with the TNF-α promoter/β-lactamase reporter only
# Conditions: U-937, read-out: maximal activity in the transrepression assay
# In short: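 Reporter readout used CCF2-AM loading for 70–90 min at room temperature after overnight (~18 h, 37 °C) PMA (5 ng/ml final) and LPS (100 ng/ml final) stimulation of compound-treated (30–45 min) TNFα-β-lactamase U937 cells expressing native GR. Activity was normalised to 100 nM dexamethasone repression.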
row,Compound,Emax [%]
1,"CC(C)NC(=O)Oc1ccccc1CC[C@]1(O)CCC2=Cc3c(cnn3-c3ccc(F)cc3)C[C@@]21C [Example 136, 2-{2-[(4αS,5R)-1-(4-fluorophenyl)-5-hydroxy-4α-methyl-1,4,4α,5,6,7-hexahydrocyclopenta[f]indazol-5-yl]ethyl}phenyl isopropylcarbamate]",5 to 100
2,"C[C@]12Cc3cnn(-c4ccc(F)cc4)c3C=C1CC[C@@]2(O)CCc1ccccc1CO [Example 149, (4αS,5R)-1-(4-fluorophenyl)-5-{2-[2-(hydroxymethyl)phenyl]ethyl}-4α-methyl-1,4,4α,5,6,7-hexahydrocyclopenta[f]indazol-5-ol]",5 to 100

# Same assay, conditions: U-937; 100 nM dexamethasone = 100% activity; read-out: maximal activity in the transrepression assay
row,Compound,Emax [%]
1,"CCNC(=O)Nc1ccc(F)cc1CC[C@]1(O)CCC2=Cc3c(cnn3-c3ccc(F)cc3)C[C@@]21C [Example 131, N-ethyl-N′-(4-fluoro-2-{2-[(4αS,5R)-1-(4-fluorophenyl)-5-hydroxy-4α-methyl-1,4,4α,5,6,7-hexahydrocyclopenta[f]indazol-5-yl]ethyl}phenyl)urea]",5 to 100
2,"CCNC(=O)Nc1c(F)cccc1CC[C@]1(O)CCC2=Cc3c(cnn3-c3ccc(F)cc3)C[C@@]21C [Example 132, N-ethyl-N′-(2-fluoro-6-{2-[(4αS,5R)-1-(4-fluorophenyl)-5-hydroxy-4α-methyl-1,4,4α,5,6,7-hexahydrocyclopenta[f]indazol-5-yl]ethyl}phenyl)urea]",5 to 100
3,"CC(C)NC(=O)Nc1ccc(F)cc1CC[C@]1(O)CCC2=Cc3c(cnn3-c3ccc(F)cc3)C[C@@]21C [Example 133, N-(4-fluoro-2-{2-[(4αS,5R)-1-(4-fluorophenyl)-5-hydroxy-4α-methyl-1,4,4α,5,6,7-hexahydrocyclopenta[f]indazol-5-yl]ethyl}phenyl)-N′-isopropylurea]",5 to 100
4,"COC(=O)Oc1ccccc1CC[C@]1(O)CCC2=Cc3c(cnn3-c3ccc(F)cc3)C[C@@]21C [Example 135, 2-{2-[(4αS,5R)-1-(4-fluorophenyl)-5-hydroxy-4α-methyl-1,4,4α,5,6,7-hexahydrocyclopenta[f]indazol-5-yl]ethyl}phenyl methyl carbonate]",5 to 100
5,"CCNS(=O)(=O)c1ccccc1CC[C@]1(O)CCC2=Cc3c(cnn3-c3ccc(F)cc3)C[C@@]21C [Example 137, N-ethyl-2-{2-[(4αS,5R)-1-(4-fluorophenyl)-5-hydroxy-4α-methyl-1,4,4α,5,6,7-hexahydrocyclopenta[f]indazol-5-yl]ethyl}benzenesulfonamide]",5 to 100
6,"CNS(=O)(=O)c1ccccc1CC[C@]1(O)CCC2=Cc3c(cnn3-c3ccc(F)cc3)C[C@@]21C [Example 139, 2-{2-[(4αS,5R)-1-(4-fluorophenyl)-5-hydroxy-4α-methyl-1,4,4α,5,6,7-hexahydrocyclopenta[f]indazol-5-yl]ethyl}-N-methylbenzenesulfonamide]",5 to 100
7,"C[C@]12Cc3cnn(-c4cccc(F)c4)c3C=C1CC[C@@]2(O)CCc1ccccc1S(N)(=O)=O [Example 140, 2-{2-[(4αS,5R)-1-(3-fluorophenyl)-5-hydroxy-4α-methyl-1,4,4α,5,6,7-hexahydrocyclopenta[f]indazol-5-yl]ethyl}benzenesulfonamide]",5 to 100
8,"C[C@]12Cc3cnn(-c4ccccc4)c3C=C1CC[C@@]2(O)CCc1ccccc1S(N)(=O)=O [Example 141, 2-{2-[(4αS,5R)-5-hydroxy-4α-methyl-1-phenyl-1,4,4α,5,6,7-hexahydrocyclopenta[f]indazol-5-yl]ethyl}benzenesulfonamide]",5 to 100
9,"C[C@]12Cc3cnn(-c4ccc(F)c(F)c4)c3C=C1CC[C@@]2(O)CCc1ccccc1S(N)(=O)=O [Example 142, 2-{2-[(4αS,5R)-1-(3,4-difluorophenyl)-5-hydroxy-4α-methyl-1,4,4α,5,6,7-hexahydrocyclopenta[f]indazol-5-yl]ethyl}benzenesulfonamide]",5 to 100
10,"C[C@]12Cc3cnn(-c4ccc(F)cc4)c3C=C1CC[C@@]2(O)CCc1cccc(F)c1C#N [Example 145, 2-fluoro-6-{2-[(4αS,5R)-1-(4-fluorophenyl)-5-hydroxy-4α-methyl-1,4,4α,5,6,7-hexahydrocyclopenta[f]indazol-5-yl]ethyl}benzonitrile]",5 to 100
11,"C[C@]12Cc3cnn(-c4ccc(F)cc4)c3C=C1CC[C@@]2(O)CCc1cc(F)ccc1C#N [Example 146, 4-fluoro-2-{2-[(4αS,5R)-1-(4-fluorophenyl)-5-hydroxy-4α-methyl-1,4,4α,5,6,7-hexahydrocyclopenta[f]indazol-5-yl]ethyl}benzonitrile]",5 to 100
12,"C[C@]12Cc3cnn(-c4ccc(F)cc4)c3C=C1CC[C@@]2(O)CCc1ccccc1-c1ccc[nH]1 [Example 147, (4αS,5R)-1-(4-fluorophenyl)-4α-methyl-5-{2-[2-(1H-pyrrol-2-yl)phenyl]ethyl}-1,4,4α,5,6,7-hexahydrocyclopenta[f]indazol-5-ol]",5 to 100
13,"C[C@]12Cc3cnn(-c4ccc(F)cc4)c3C=C1CC[C@@]2(O)CCc1cccc(F)c1CN [Example 153, (4αS,5R)-5-{2-[2-(aminomethyl)-3-fluorophenyl]ethyl}-1-(4-fluorophenyl)-4α-methyl-1,4,4α,5,6,7-hexahydrocyclopenta[f]indazol-5-ol]",5 to 100
14,"C[C@]12Cc3cnn(-c4ccc(F)cc4)c3C=C1CC[C@@]2(O)CCc1cccc(F)c1C=O [Example 154, 2-fluoro-6-{2-[(4αS,5R)-1-(4-fluorophenyl)-5-hydroxy-4α-methyl-1,4,4α,5,6,7-hexahydrocyclopenta[f]indazol-5-yl]ethyl}benzaldehyde]",5 to 100
15,"C[C@]12Cc3cnn(-c4ccc(F)cc4)c3C=C1CC[C@@]2(O)CCc1cccc(F)c1C(=O)N1CC(=O)C1 [Example 155, 1-(2-fluoro-6-{2-[(4αS,5R)-1-(4-fluorophenyl)-5-hydroxy-4α-methyl-1,4,4α,5,6,7-hexahydrocyclopenta[f]indazol-5-yl]ethyl}benzoyl)azetidin-3-one]",5 to 100
16,"C[C@]12Cc3cnn(-c4ccc(F)cc4)c3C=C1CC[C@@]2(O)CCc1ccccc1-c1cscn1 [Example 158, (4αS,5R)-1-(4-fluorophenyl)-4α-methyl-5-{2-[2-[1,3-thiazol-4-yl)phenyl]ethyl}-1,4,4α,5,6,7-hexahydrocyclopenta[f]indazol-5-ol]",5 to 100
17,"C[C@]12Cc3cnn(-c4ccc(F)cc4)c3C=C1CC[C@@]2(O)CCc1cc(C(F)(F)F)ccc1C#N [Example 161, 2-{2-[(4αS,5R)-1-(4-fluorophenyl)-5-hydroxy-4α-methyl-1,4,4α,5,6,7-hexahydrocyclopenta[f]indazol-5-yl]ethyl}-4-(trifluoromethyl)benzonitrile]",5 to 100
18,"Cc1ccc(C#N)c(CC[C@]2(O)CCC3=Cc4c(cnn4-c4ccc(F)cc4)C[C@@]32C)c1 [Example 162, 2-{2-[(4αS,5R)-1-(4-fluorophenyl)-5-hydroxy-4α-methyl-1,4,4α,5,6,7-hexahydrocyclopenta[f]indazol-5-yl]ethyl}-4-methylbenzonitrile]",5 to 100
19,"C[C@]12Cc3cnn(-c4ccc(F)cc4)c3C=C1CC[C@@]2(O)CCc1ccc(C(F)(F)F)cc1C#N [Example 164, 2-{2-[(4αS,5R)-1-(4-fluorophenyl)-5-hydroxy-4α-methyl-1,4,4α,5,6,7-hexahydrocyclopenta[f]indazol-5-yl]ethyl}-5-(trifluoromethyl)benzonitrile]",5 to 100
20,"CO[C@@]1(CCc2ccccc2C(N)=O)CCC2=Cc3c(cnn3-c3ccc(F)cc3)C[C@@]21C [Example 165, 2-{2-[(4αS,5R)-1-(4-fluorophenyl)-5-methoxy-4α-methyl-1,4,4α,5,6,7-hexahydrocyclopenta[f]indazol-5-yl]ethyl}benzamide]",5 to 100
21,"C[C@]12Cc3cnn(-c4ccc(F)cc4)c3C=C1CC[C@@]2(O)CCc1cc(F)ccc1C(N)=O [Example 166, 4-fluoro-2-{2-[(4αS,5R)-1-(4-fluorophenyl)-5-hydroxy-4α-methyl-1,4,4α,5,6,7-hexahydrocyclopenta[f]indazol-5-yl]ethyl}benzamide]",5 to 100
22,"C[C@]12Cc3cnn(-c4ccccc4)c3C=C1CC[C@@]2(O)CCc1cccc(F)c1C(N)=O [Example 167, 2-fluoro-6-{2-[(4αS,5R)-5-hydroxy-4α-methyl-1-phenyl-1,4,4α,5,6,7-hexahydrocyclopenta[f]indazol-5-yl]ethyl}benzamide]",5 to 100
23,"C[C@]12Cc3cnn(-c4ccc(F)cc4)c3C=C1CC[C@@]2(O)CCc1cccc(Cl)c1C(N)=O [Example 169, 2-chloro-6-{2-[(4αS,5R)-1-(4-fluorophenyl)-5-hydroxy-4α-methyl-1,4,4α,5,6,7-hexahydrocyclopenta[f]indazol-5-yl]ethyl}benzamide]",5 to 100
